Source: ChEMBL document CHEMBL1157539, “Thousands of chemical starting points for antimalarial lead identification” (Nature, 2010)

System: Plasmodium falciparum
Assay: GSK_TCMDC: Inhibition of Plasmodium falciparum 3D7 in whole erythrocytes, using parasite LDH activity as an index of growth.
Type: functional, organism-based
Conditions: not given

SMILES | XC50
O=C(Nc1ccccc1C(F)(F)F)NC1CCC(CN2CCC(c3c[nH]c4ccccc34)CC2)CC1 (stereo unspecified) | 0.946 µM
O=C(/C=C/c1cccc(F)c1)NC1CCC(CN2CCC(c3c[nH]c4ccccc34)CC2)CC1 (stereo unspecified) | 0.866 µM

Same assay, conditions: Plasmodium falciparum, 3D7

SMILES | XC50
CCc1ccc(CN2CCCCC(NC(=O)c3cc(-c4ccccc4F)cs3)C2)cc1 (stereo unspecified) | 1.16 µM
COc1ccccc1C(C)NCC(=O)Nc1cccc(C(=O)Nc2cccc(C(F)(F)F)c2)c1 (stereo unspecified) | 1.53 µM
C[C@@H](Oc1cc(-n2cnc3ccc(OCC4CCN(S(C)(=O)=O)CC4)cc32)sc1C(N)=O)c1ccccc1C(F)(F)F | 1.02 µM
Cc1noc(C)c1-c1cccc(CNCc2ccc(-c3cccc(-c4nc5ccccc5[nH]4)c3)cc2)c1 | 0.569 µM
Cc1cccc2nc(-c3cccc(-c4cccc(NC(=O)Cc5c[nH]cn5)c4)c3)[nH]c12 | 0.675 µM
c1ccc(CNCc2ccc(-c3cccc(-c4nc5ccccc5[nH]4)c3)cc2)cc1 | 0.422 µM
COc1ccc2ncc(Cl)c(CCN3CCC(NCc4ccc5c(n4)NC(=O)CO5)CC3)c2c1 | 0.47 µM
CC(C)(C)c1nn(-c2ccccc2)c2[nH]c(=O)c(CNCc3ccccc3)cc12 | 1.05 µM
COc1cncc(/C=C/c2cncc(C(=O)NCCc3ccc(Cl)cc3Cl)c2)c1 | 0.879 µM
COc1cccc(-c2cc(C(F)(F)F)n3ncc(C(=O)Nc4cc(Cl)ccc4O)c3n2)c1 | 0.203 µM
CC1(C)NC(N)=NC(=N)N1OCOc1cc(Cl)c(Cl)cc1Cl | 0.0032 µM
CCCc1cn2c3c(cc(C(=O)N[C@@H](Cc4ccccc4)[C@H](O)CNC4CCCCC4)cc13)N(C)S(=O)(=O)CC2 | 0.0669 µM
O=C(/C=C/c1ccc(Cl)c(Cl)c1)NCCCCCN1CCC(NC(=O)Nc2ccc3c(c2)OCO3)CC1 | 0.713 µM
CN(C)C(=O)n1cnc(S(=O)(=O)N(C)c2ccc(Cl)cc2)n1 | 0.767 µM
CCOC(=O)c1c(C)n(C2CCCCCC2)c2cc(Br)c(O)cc12 | 1.2 µM
Cc1nnsc1C(=O)Nc1cccc(-c2ccc(-c3nc4cc(F)ccc4[nH]3)s2)c1 | 0.889 µM
C[C@H]1CN(Cc2cccc(-c3cc(CNC(=O)c4cccc(CC5CCN(C)CC5)c4)ccc3F)c2)CCN1C | 1.09 µM
Cc1ccc(O)cc1Nc1ccnc2ccc(-c3csc(CNCCN4CCOCC4)n3)cc12 | 0.153 µM
CCN(CC)CCOc1ccc(C(O)(C#CC(O)(c2ccc(Br)cc2)c2ccc(OCCN(CC)CC)cc2)c2ccc(Br)cc2)cc1 (stereo unspecified) | 0.616 µM
O=C(Nc1cccc(-c2nn3ccccc3c2-c2ccnc(Nc3ccc(NCCCN4CCOCC4)c(F)c3)n2)c1)c1c(F)cccc1F | 0.259 µM
Cn1c2c(c3ccccc31)CN(CCC1(c3ccc(Cl)c(Cl)c3)CN(C(=O)Cc3ccccc3)CCO1)CC2 (stereo unspecified) | 0.358 µM
Cc1[nH]cnc1CSCCN/C(=N\C#N)NCCCCCCCCN/C(=N/C#N)NCCSCc1nc[nH]c1C | 1.27 µM
O=C(C1COc2ccccc2O1)N(CCCn1ccnc1)Cc1csc(-c2ccc(CNCc3ccccc3)cc2)n1 (stereo unspecified) | 0.619 µM
Cc1[nH]c2ccccc2c1C1=CCN(CCCCCC23CCCc4cccc(c42)NC3=O)CC1 (stereo unspecified) | 0.253 µM

SMILES | XC50
Cc1cnc(NC(=O)c2cn(-c3ccccc3)nc2-c2cccs2)s1 | 0.945 µM
O=C(/C=C/c1ccc(Cl)c(Cl)c1)NCCCCCN1CCC(NC(=O)NC2CCCCC2)CC1 | 0.557 µM
Cc1cccc(C(=O)Nc2ccnc(N(C)CCCN(C)Cc3cccc(C#N)c3)c2)c1 | 1.32 µM
Cc1ccc(Cc2c[nH]c(NCCSCc3ccc(CN4CCOCC4)o3)nc2=O)cn1 | 1.07 µM
CS(=O)(=O)c1cccc(-c2cnc3[nH]cc(-c4cccc(CCN)c4)c3c2)c1 | 1.56 µM
Cc1noc(-c2ccccc2)c1NC(=O)NC1CCN(CCCCCNC(=O)/C=C/c2ccc(Cl)c(Cl)c2)CC1 | 0.985 µM
NC(=O)c1ccc(NC(=O)CN(Cc2ccc(Cl)cc2)S(=O)(=O)c2ccccc2)cc1 | 0.653 µM
CC(C)Sc1nc2c(c(=O)n1CCc1ccccc1)C1(CCCCC1)Cc1ccccc1-2 | 1.87 µM
Cc1ccc(F)cc1-c1cc(N2CCCN(C(=O)c3ccc(Br)o3)CC2)ncn1 | 1.43 µM
CCCc1cc(N2CCC(c3ccccc3)(N3CCCCC3)CC2)nc(Nc2ccc(OC)cc2)n1 | 1.09 µM
COc1cc2nc(N3CCN(c4cc(C)ccc4C)CC3)nc(N)c2cc1OC | 0.851 µM
COc1ccc2nccc([C@@H](O)CN3CCC(NCc4nc5c(cc4F)SCC(=O)N5)C(F)C3)c2c1 (stereo partly specified) | 0.725 µM
O=C(O)C[C@H](NC(=O)c1cc(-c2ccc3c(c2)OCO3)no1)C(=O)O.O=C(O)C[C@H](NC(=O)c1conc1-c1ccc2c(c1)OCO2)C(=O)O | 0.194 µM
O=C(CCn1cncn1)N1CCCC(c2[nH]c3ccccc3c2-c2ccncc2)C1 (stereo unspecified) | 0.8 µM
O=C(Nc1ccccc1C(F)(F)F)NC1CCC(CN2CCC(c3c[nH]c4ccccc34)CC2)CC1 (stereo unspecified) | 0.784 µM
CC1(C)NC(N)=NC(=N)N1OCCCc1cccc(C(F)(F)F)c1 | 0.0032 µM
Cc1ccc(-c2cc(C(=O)Nc3ccc(S(=O)(=O)N4CC(C)OC(C)C4)cc3)[nH]n2)c(O)c1 (stereo unspecified) | 0.608 µM
O=C(NCc1cccc(CN2CCOCC2)c1)c1cc(Br)cc(N2CCN(c3ccncc3)CC2)c1 | 0.858 µM
CCN1CCN(CCNc2c3ccccc3nc3ccccc23)CC1 | 1.02 µM
Oc1ccc2[nH]c(-c3ccc(OC(F)(F)F)cc3)nc2c1CNC1CCCC1 | 1.75 µM
Cc1cccc2nc(-c3ccc(-c4ccc(CN5CCCC(N)C5)cc4)s3)[nH]c12 (stereo unspecified) | 0.382 µM
Cc1cc(-c2ccc(CN3Cc4ccccc4C3)cc2)ccc1S(=O)(=O)NCCN1CCCC1 | 0.966 µM
O=C(Nc1ccc(Cl)cc1F)N[C@H]1CCN(CCCCCNC(=O)C2CC2c2ccc(Cl)c(Cl)c2)C1 (stereo partly specified) | 1.09 µM
Cc1ccc(C2=NNC3(S2)C(=O)N(C)c2ccccc23)cc1 (stereo unspecified) | 1.02 µM

SMILES | XC50
CCOCCCNc1nc2cc(OC)c(OC)cc2c2nc(-c3ccccc3)nn12 | 0.209 µM
CN(CCN)Cc1ccc(-c2ccc(-c3nc4cc(C(F)(F)F)ccc4[nH]3)s2)cc1 | 0.607 µM
COc1cc(NC(=O)Nc2ccnc3ccccc23)cc(OC)c1 | 0.469 µM
O=C(/C=C/c1ccc(Cl)c(Cl)c1)NCCCCCN1CC[C@H](NC(=O)Nc2ccc(Oc3ccccc3)cc2)C1 | 0.703 µM
Cc1ccc(CN2CCN(CC(O)COc3ccc4c(c3)CCC4)CC2)cc1 (stereo unspecified) | 0.863 µM
COCCNCc1cccc(-c2cc3nccc(Nc4ccc(Oc5ccccc5)cc4)c3cc2Cl)c1 | 1.38 µM
CN(C)CCCN1C(=O)c2[nH]nc(-c3ccc(Cl)cc3O)c2C1c1ccc(Cl)cc1 (stereo unspecified) | 0.758 µM
CN1CCN(Cc2ccc(-c3ccc4ncnc(Nc5ccc(OCc6ccccc6)cc5)c4c3)o2)CC1 | 0.689 µM
C=CCc1ccc(C[C@H](NC(=O)OC(C)(C)C)C(=O)OC)cc1 | 0.814 µM
CCCc1ccc(Cc2cnc3nc(N)nc(N)c3c2C)cc1 | 0.283 µM
NC(=O)c1cccc(Nc2nccc(Nc3ccc(Oc4cccc5ccccc45)cc3)n2)c1 | 1.15 µM
Cc1c(C(=O)N2CCc3cc4nccc(N5CCN6CCC[C@H]6C5)c4cc32)cnn1-c1ccc(C#N)cc1 | 0.994 µM
Cc1ccc(-c2cnc(N)c3cc(-c4ccnc(N)n4)ccc23)cc1 | 0.808 µM
CCCCCn1c(Sc2ccc(C#N)c([N+](=O)[O-])c2)nnc1-c1cccc(Cl)c1 | 0.768 µM
COc1ccc2nc3cc(Cl)ccc3c(NCCCN3CCNCC3)c2c1 | 0.232 µM
CN(C)CCNC(=O)c1ccc2c(c1)n(C1CCN(S(=O)(=O)c3ccc(-c4ccccc4)cc3)CC1)c(=O)n2CC1CCCCC1 | 0.624 µM
COc1ccccc1C1CCN(C2CCC(NC(=O)/C=C/c3cccc(Cl)c3)CC2)CC1 (stereo unspecified) | 1.03 µM
CC(C)(C)[C@@H](Nc1ccc(C#N)c2ccccc12)C(=O)NC1(Cc2ccc(O)cc2)CCCC1 | 1.44 µM
COc1ccc(Nc2ncc3c(-c4cccc(NC(=O)Cc5cccc(O)c5)c4)c[nH]c3n2)cc1OC | 0.698 µM
O=C(CCc1c[nH]cn1)Nc1cccc(-c2ccc(-c3nc4cc(F)ccc4[nH]3)cc2)c1 | 0.244 µM
COc1ccc(C2CC(=O)C3=C(C2)NC(C)=C(C(=O)OC2CCCC2)C3c2cccc(O)c2)cc1OC (stereo unspecified) | 0.216 µM
Cc1cc(=NN=Cc2cccc(F)c2)c2cc(F)ccc2[nH]1 | 0.478 µM
O=C(/C=C/c1cccc(F)c1)NC1CCC(CN2CCC(c3c[nH]c4ccccc34)CC2)CC1 (stereo unspecified) | 0.713 µM
CCN(CC)CCN(Cc1ccc(-c2ccc(C(F)(F)F)cc2)cc1)C(=O)Cn1c(CCc2ccc(F)c(C#N)c2)nc(=O)c2ccccc21 | 0.769 µM

SMILES | XC50
CCCCc1ccc(-c2nc(NC(=O)Nc3[nH]c(-c4ccccc4)nc3C(=O)OCC)c(C(=O)OCC)[nH]2)cc1 | 0.752 µM
COc1ccc2[nH]ccc(=NN=Cc3ccccc3Cl)c2c1 | 0.664 µM
CCCOC(=O)C1=C(C)NC2=C(C(=O)CC(c3ccc(OC)c(OC)c3)C2)C1c1cccc(O)c1 (stereo unspecified) | 0.121 µM
Clc1ccc(Cc2nc3ccccc3[nH]2)cc1Cl | 0.246 µM
Nc1nccc(-c2ccc3c(-c4cccc(F)c4)cnc(N)c3c2)n1 | 1.02 µM
CC1CN(Cc2cccc(-c3ccc(-c4nc5ccccc5[nH]4)cc3)c2)CC(C)O1 (stereo unspecified) | 0.857 µM
CC(C)Oc1cc(-c2ccc(S(C)(=O)=O)cc2)nc(N(Cc2cccc(F)c2F)Cc2cccc(F)c2F)n1 | 0.121 µM
O=C(Cc1ccccc1)NC(c1ccccc1)c1ccc2cccnc2c1O (stereo unspecified) | 0.952 µM
Cc1cccc2nc(-c3cccc(-c4cccc(NC(=O)c5ccc(C(N)=O)cc5)c4)c3)[nH]c12 | 0.323 µM
COc1ccccc1CN1CCC(CNC(=O)c2cc(-c3ccc(N(C)C)cc3)cs2)C1 (stereo unspecified) | 1.27 µM
Cc1ccc(F)c(CN2CCC(N3CC(c4ccccc4)(c4ccccc4)OC3=O)CC2)c1Cl | 0.593 µM
CCNc1cc(C(=O)N[C@@H](Cc2cccc(F)c2)[C@H](O)CNC(C)CCCC(C)C)cc(N2CCCCS2(=O)=O)c1 (stereo partly specified) | 0.596 µM
Cn1ccnc1-c1nc2ccccn2c1NCC(=O)Nc1ccccc1N1CCCCC1 | 0.98 µM
CCCCOc1c(CNCCCCCCNCc2ccc3ccccc3c2OCCCC)ccc2ccccc12 | 0.869 µM
CCCC(C)Nc1nc(C)cc(N[C@@H](CC(C)C)C(=O)NCCOc2ccccc2)n1 (stereo partly specified) | 1.71 µM
O=C(NC1CCCC1)c1ccc(N2CCC(NCc3cccc(C(F)(F)F)c3)CC2)cc1 | 1.33 µM
COc1cc(CNCCCNc2nc3ncccc3[nH]2)c2[nH]cc(Br)c2c1 | 1.16 µM
Cc1cccc2c(C3CCN(CC4CCC(NC(=O)/C=C/c5ccc(Cl)c(Cl)c5)CC4)CC3)c[nH]c12 (stereo unspecified) | 1.03 µM
Cc1cccc(NC(c2cccs2)c2c(NC(=O)c3ccccc3)sc(C)c2C)n1 (stereo unspecified) | 0.832 µM
O=C(Nc1ccc(-c2nc3ccccc3[nH]2)cc1)C1CCN(Cc2ccccc2)CC1 | 1.76 µM
c1cc(CNc2ncc(-c3ccsc3)c(-c3nccs3)n2)ccn1 | 0.358 µM
COc1ccc(CNCc2ccc(-c3ccc(-c4nc5cccc(C)c5[nH]4)cc3)cc2)cc1 | 0.341 µM
